Values after ≈ are worked out from the molar mass of the structure shown. Bridge positions count the residues as written; N and C are the ends. Square brackets hold non-standard residues; d marks the D form. Peptide text beside a SMILES is read from it. * marks the point of attachment. X1 = CC[C@H](C)CCCCC(=O)*; Dab = NCC[C@H](N)C(=O)O
Legend:
E. coli MG1655 [1] = test: MIC and IC50 measurement; format: cell-based, Escherichia coli; details: for IC50 / MIC: OD590 after 16 hours
E. coli ATCC 25922 = test: MIC and IC50 measurement; format: cell-based, Escherichia coli; details: for IC50 / MIC: OD590 after 16 hours
P. aeruginosa PA14 = test: MIC and IC50 measurement; format: cell-based, Pseudomonas aeruginosa; details: for IC50 / MIC: OD590 after 16 hours
[2] = system: wild-type strain (Keio deletion library); test: MIC and IC50 on Keio collection strains; format: cell-based, Escherichia coli
[3] = system: ΔrfaY deletion mutant (Keio deletion library); test: MIC and IC50 on Keio collection strains; format: cell-based, Escherichia coli
[4] = system: ΔlpxL deletion mutant (Keio deletion library); test: MIC and IC50 on Keio collection strains; format: cell-based, Escherichia coli
S. aureus ATCC 29213 = test: Selection of resistant mutants by serial passage, MIC per passage; format: cell-based, Staphylococcus aureus
[5] = ref Michod et al., 2009; cited from earlier work
E. coli MG1655 [6] = test: Growth curves with single AMPs and combinations of AMPs; format: cell-based, Escherichia coli; details: single compound at the "full" concentration, 6 hours
[7] = BM2 Mg^high (BM2 with 2 mM MgSO4)
[8] = BM2 Mg^low (BM2 with 20 μM MgSO4)
[9] = LB Mg^high (LB with 2 mM MgSO4)
[10] = LB containing EDTA at concentrations that do not affect bacterial proliferation

Compound | IC50 (E. coli MG1655 [1]; [7]) | MIC (E. coli MG1655 [1]; [7]) | IC50 (E. coli MG1655 [1]; [8]) | MIC (E. coli MG1655 [1]; [8]) | MIC (E. coli MG1655 [1]; [9]) | MIC (E. coli MG1655 [1]; LB) | IC50 (E. coli MG1655 [1]; LB, GraphPad Prism 8) | IC50 (E. coli ATCC 25922; [9]) | MIC (E. coli ATCC 25922; [9]) | IC50 (E. coli ATCC 25922; LB) | MIC (E. coli ATCC 25922; LB) | IC50 (P. aeruginosa PA14; [7]) | MIC (P. aeruginosa PA14; [7]) | MIC (P. aeruginosa PA14; [8]) | MIC (P. aeruginosa PA14; [9]) | IC50 (P. aeruginosa PA14; LB) | MIC (P. aeruginosa PA14; LB) | growth inhibition (E. coli MG1655 [6]) | further results
CSCC[C@@H](NC(=O)[C@@H](Cc1c[nH]c2ccccc12)NC(=O)[C@H](NC(=O)[C@H](NC(=O)[C@@H](CC(N)=O)NC(=O)[C@@H](CC(C)C)NC(=O)[C@@H](CCCNC(=N)N)NC(=O)[C@H](NC(=O)[C@H](N)CC(=O)O)[C@H](C)O)[C@H](C)O)C(C)C)C(=O)N[C@H](Cc1c[nH]c2ccccc12)C(=O)NCC(=O)NCC(=O)N[C@H](CCCNC(=N)N)C(=O)N[C@H](CCCNC(=N)N)C(=O)N[C@H](CCCNC(=N)N)C(=O)N[C@H](CCC(N)=O)C(=O)N[C@H](CCCNC(=N)N)C(=O)N[C@H](CCCNC(=N)N)C(=O)N[C@H](CCCCN)C(=O)N[C@H](CCCCN)C(=O)N[C@H](CCCNC(=N)N)C(=O)NCC(=O)O [TAT-RasGAP317-326] (H-[dD][dT][dR][dL][dN][dT][dV][dW][dM][dW]GG[dR][dR][dR][dQ][dR][dR][dK][dK][dR]G-OH) | 2 µM | 4 µM | 0.3 µM | 0.5 µM | 32 µM | 8 µM | 3 µM | 52 µM | 128 µM | 5.2 µM | 8 µM | 10.1 µM | 32 µM | 4 µM | 64 µM | 7.2 µM | 32 µM |  | IC50 (E. coli MG1655 [1]; [9]): 16.3 µM; IC50 (P. aeruginosa PA14; [8]): 1.7 µM; IC50 (P. aeruginosa PA14; [9]): 20.8 µM; IC50 ([2]; Strain 1): 4.1 µM; MIC ([2]; Strain 1): 7.5 µM (≈ 21.1 µg/mL); IC50 ([2]; Strain 2): 4.8 µM; MIC ([2]; Strain 2): 7.5 µM (≈ 21.1 µg/mL); IC50 ([3]; Strain 1): 7.1 µM; MIC ([3]; Strain 1): 10 µM (≈ 28.1 µg/mL); IC50 ([3]; Strain 2): 7.8 µM; MIC ([3]; Strain 2): 10 µM (≈ 28.1 µg/mL); IC50 ([4]; Strain 1): 2 µM; MIC ([4]; Strain 1): 2.5 µM (≈ 7.04 µg/mL); IC50 ([4]; Strain 2): 2.2 µM; MIC ([4]; Strain 2): 2.5 µM (≈ 7.04 µg/mL); MIC after selection (S. aureus ATCC 29213; S. aureus passaged in presence of peptide, rapidly increased): 256 µM; MIC of the parental strain (S. aureus ATCC 29213; parental strain of S. aureus): 64 to 128 µM; biodistribution and clearance [5]: poor biodistribution and rapid clearance
CC[C@H](C)CCCCC(=O)N[C@@H](CCN)C(=O)N[C@H](C(=O)N[C@@H](CCN)C(=O)N[C@H]1CCNC(=O)[C@H]([C@@H](C)O)NC(=O)[C@H](CCN)NC(=O)[C@H](CCN)NC(=O)[C@H](CC(C)C)NC(=O)[C@@H](Cc2ccccc2)NC(=O)[C@H](CCN)NC1=O)[C@@H](C)O [Polymyxin B, polymyxin B] (X1-[Dab]T[Dab][Dab][Dab][dF]L[Dab][Dab]T; lactam 4-C (inferred); N-terminus assumed) | 0.8 µg/mL | 2 µg/mL | 1.0 µg/mL | 2 µg/mL | 2 µg/mL | 1 µg/mL | 0.6 µg/mL | 2.7 µg/mL | 4 µg/mL | 1.8 µg/mL | 2 µg/mL | 0.5 µg/mL | 1 µg/mL | 4 µg/mL | 2 µg/mL | 2.1 µg/mL | 4 µg/mL | ~ 35% | impact of low magnesium in BM2 medium on MIC (E. coli MG1655 [1]; BM2 Mg^low vs BM2 Mg^high): no impact; effect of EDTA on MIC (E. coli MG1655 [1]; [10]): less affected; effect of soluble LPS on efficacy (MIC) (E. coli MG1655 [1]; LB containing purified E. coli LPS, averages of two independent experiments): greatly diminishes the efficacy; effect of EDTA on MIC (E. coli ATCC 25922; [10]): less affected; increase of MIC by low magnesium in BM2 medium (P. aeruginosa PA14; BM2 Mg^low vs BM2 Mg^high): 4 fold
melittin |  |  |  |  |  |  |  |  |  |  |  |  |  |  |  |  |  | ~ 20% | 
